Laboratory results taken from patent US20240000942A1, “Craniofacial implant made of polyether ether ketone (PEEK) with deposits to store and release active substances or active Ingredient” (Arcosystem SPA, priority 2022, published 2024).
Where “and” joins values, the source holds several entries; their conditions need not be identical. Equal entries are not always repeated. Entries after “also recorded” stand apart in the source; their conditions may differ.

Assay: Stability of the vancomycin solution within the implant reservoir (HPLC)
Format: physicochemical
Experimental: For this, a time zero (To) sample corresponding to a sample that was immediately analyzed after its reconstitution was analyzed, along with a sample that was left to rest for 24 hours within the implant. In this way, results from the 24 hour time frame were compared with those of time zero as sample areas and degradation percentage at 24 hours.
Shaking up to the complete solution of the lyophilized powder, taking 0.5 mL of said ampule, and diluted with physiological saline solution up to 5 mL of final volume. This 5 mL of solution is injected in the reservoir of the implant. […] Said 0.5 mL were diluted up to 5 mL of final volume using 0.2M potassium dibasic phosphate buffer adjusted to pH 7.4. Then, using a syringe, said volume was loaded in the reservoir or capsule of the implant, the implant was then sealed and incorporated in an empty beaker. Nominal concentration of the solution within the reservoir is […].
After 24 hours, the chamber or reservoir was opened to extract the 0.5 mL of the solution contained within. Of said 0.5 mL extracted from the reservoir, a 0.1 mL aliquot is taken that then is transferred to a 100 mL flask for its analysis using HPLC, considering the same calibration and standard curves that were described for the previous example.

Compound: CN[C@H](CC(C)C)C(=O)N[C@H]1C(=O)N[C@@H](CC(N)=O)C(=O)N[C@H]2C(=O)N[C@H]3C(=O)N[C@H](C(=O)N[C@H](C(=O)O)c4cc(O)cc(O)c4-c4cc3ccc4O)[C@H](O)c3ccc(c(Cl)c3)Oc3cc2cc(c3O[C@@H]2O[C@H](CO)[C@@H](O)[C@H](O)[C@H]2O[C@H]2C[C@](C)(N)[C@H](O)[C@H](C)O2)Oc2ccc(cc2Cl)[C@H]1O [vancomycin]
- HPLC sample area (24 hour period within the implant): 94679 and 94744
- HPLC sample area (24 hour period within the implant, mean): 94711.5
- degradation of vancomycin within the implant (in words) (24 hours): not significant; also recorded: no indication of significative degradation
- HPLC sample area (Time 0 (analyzed immediately after reconstitution)): 948050 and 948671
- HPLC sample area (Time 0 (analyzed immediately after reconstitution), mean): 948360.5
